Data published in patent publication US10407431B2, “Compounds and compositions as toll-like receptor 7 agonists” (NOVARTIS AG, priority 2014, dated 2019).

These compounds were tested against human TLR7 (Homo sapiens (Human), UniProt Q9NYK1) (assay: Reporter Gene Assay (HEK293 stably transfected with human TLR7 and NF-kB-driven luciferase reporter)). Conditions: HEK293 cells stably transfected with human TLR7 and pNifty-Luciferase; 7 hours incubation; EC50 relative to the activity of resiquimod set to 100%.
Sequence of human TLR7 (Q9NYK1 27-1049): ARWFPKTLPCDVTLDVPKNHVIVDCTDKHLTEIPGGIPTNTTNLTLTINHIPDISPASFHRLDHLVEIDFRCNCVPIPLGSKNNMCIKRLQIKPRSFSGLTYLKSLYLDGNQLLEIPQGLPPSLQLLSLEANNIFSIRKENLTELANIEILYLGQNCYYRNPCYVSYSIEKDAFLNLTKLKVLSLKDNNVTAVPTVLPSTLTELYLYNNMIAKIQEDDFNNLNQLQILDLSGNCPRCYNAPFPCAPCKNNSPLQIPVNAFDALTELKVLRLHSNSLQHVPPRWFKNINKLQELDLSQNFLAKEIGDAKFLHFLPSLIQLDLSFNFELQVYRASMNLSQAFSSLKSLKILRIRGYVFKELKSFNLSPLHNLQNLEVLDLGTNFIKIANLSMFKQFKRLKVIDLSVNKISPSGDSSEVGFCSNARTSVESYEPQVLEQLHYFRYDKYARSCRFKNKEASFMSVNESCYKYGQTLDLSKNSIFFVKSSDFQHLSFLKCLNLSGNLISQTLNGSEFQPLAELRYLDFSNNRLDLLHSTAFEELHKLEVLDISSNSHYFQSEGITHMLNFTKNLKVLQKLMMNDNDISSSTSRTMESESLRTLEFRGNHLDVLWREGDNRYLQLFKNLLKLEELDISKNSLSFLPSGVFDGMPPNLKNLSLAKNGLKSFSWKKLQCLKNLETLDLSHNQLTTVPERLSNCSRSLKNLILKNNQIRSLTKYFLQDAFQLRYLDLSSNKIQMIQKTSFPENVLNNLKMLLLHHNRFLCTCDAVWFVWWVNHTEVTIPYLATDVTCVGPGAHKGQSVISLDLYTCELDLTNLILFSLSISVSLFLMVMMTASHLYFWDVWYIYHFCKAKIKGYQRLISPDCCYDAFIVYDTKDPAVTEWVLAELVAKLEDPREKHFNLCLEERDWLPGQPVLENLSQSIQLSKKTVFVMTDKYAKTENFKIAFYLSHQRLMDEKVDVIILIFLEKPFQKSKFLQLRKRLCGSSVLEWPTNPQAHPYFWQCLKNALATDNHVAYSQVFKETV
Assay type: cell-based
Protocol: As a control assay, normal Hek293 transfected with pNifty-Luc were used. […] Bright-Glo™ Luciferase assay buffer and substrate were supplied by Promega #E263B and #E264B (assay substrate and buffer respectively). 384 well clear-bottom plates were supplied by Greiner bio-one (#789163-G) and were custom bar-coded plates.
Cells were plated at 25,000 cells/well in 384-well plates in a final volume of 50 μl of media. Cells were allowed to adhere to the plates after overnight (18 hours) culture at 37° C. and 5% CO2. Serially diluted experimental and positive control compounds were then dispensed to each well and incubated for 7 hours at 37° C. and 5% CO2. Cells stimulated with DMSO alone also serve as negative controls. After the incubation, 30 μl of the pre-mix assay buffer and substrate buffer were added to each well according to manufacturer's instructions. The luminescence signal was read on a CLIPR machine with an integration time of 20 seconds per plate.

Point of comparison: `CCCCCNc1nc(N)nc2ccn(Cc3ccc(CC(=O)OCC(=O)N(CCC)CCC)cc3OC)c12` [Example 19, 2-(dipropylcarbamoyl)methyl 2-(4-{[2-amino-4-(pentylamino)-5H-pyrrolo[3,2-d]pyrimidin-5-yl]methyl}-3-methoxyphenyl)acetate], EC50 0.2 µM. Against it:
- CCCC[C@@H](CO)Nc1nc(N)nc2ccn(Cc3ccc(CCC(=O)OCC(=O)N4CCOCC4)cc3OC)c12 [Example 15, (S)-2-morpholino-2-oxoethyl 3-(4-((2-amino-4-((1-hydroxyhexan-2-yl)amino)-5H-pyrrolo[3,2-d]pyrimidin-5-yl)methyl)-3-methoxyphenyl)propanoate] — 10-fold lower, 0.02 µM
- CCCCCNc1nc(N)nc2ccn(Cc3cc(/C=C/C(=O)OCC(=O)N4CCOCC4)ccc3OC)c12 [Example 16, 2-(morpholin-4-yl)-2-oxoethyl (2E)-3-(3-{[2-amino-4-(pentylamino)-5H-pyrrolo[3,2-d]pyrimidin-5-yl]methyl}-4-methoxyphenyl)prop-2-enoate] — lower, < 0.005 µM
- CCCCCNc1nc(N)nc2ccn(Cc3cc(CCC(=O)OCC(=O)N4CCOCC4)ccc3OC)c12 [Example 17, 2-(morpholin-4-yl)-2-oxoethyl 3-(3-{[2-amino-4-(pentylamino)-5H-pyrrolo[3,2-d]pyrimidin-5-yl]methyl}-4-methoxyphenyl)propanoate] — 4-fold lower, 0.05 µM
- CCCCCNc1nc(N)nc2ccn(Cc3ccc(CC(=O)OCC(=O)OCc4ccccc4)cc3OC)c12 [Example 18, 2-(benzyloxy)-2-oxoethyl 2-(4-{[2-amino-4-(pentylamino)-5H-pyrrolo[3,2-d]pyrimidin-5-yl]methyl}-3-methoxyphenyl)acetate] — the same, 0.2 µM
- CCCCCNc1nc(N)nc2ccn(Cc3ccc(CC(=O)OCC(=O)N(C)C)cc3OC)c12 [Example 20, 2-(dimethylamino)-2-oxoethyl 2-(4-((2-amino-4-(pentylamino)-5H-pyrrolo[3,2-d]pyrimidin-5-yl)methyl)-3-methoxyphenyl)acetate] — 2.5-fold lower, 0.08 µM
- CCCCCNc1nc(N)nc2ccn(Cc3ccc(CC(=O)OCCN4CCN(C)CC4)cc3OC)c12 [Example 21, 2-(4-methylpiperazin-1-yl)ethyl 2-(4-{[2-amino-4-(pentylamino)-5H-pyrrolo[3,2-d]pyrimidin-5-yl]methyl}-3-methoxyphenyl)acetate] — lower, < 0.005 µM
- CCCCCNc1nc(N)nc2ccn(Cc3ccc(CC(=O)OCCO)cc3OC)c12 [Example 22, 2-hydroxyethyl 2-(4-{[2-amino-4-(pentylamino)-5H-pyrrolo[3,2-d]pyrimidin-5-yl]methyl}-3-methoxyphenyl)acetate] — lower, < 0.006 µM
- CCCCCNc1nc(N)nc2ccn(Cc3ccc(CC(=O)OCCCCN(C)C)cc3OC)c12 [Example 23, 4-(dimethylamino)butyl 2-(4-{[2-amino-4-(pentylamino)-5H-pyrrolo[3,2-d]pyrimidin-5-yl]methyl}-3-methoxyphenyl)acetate] — 29-fold lower, 0.007 µM
- CCCCCNc1nc(N)nc2ccn(Cc3ccc(CC(=O)OCCN4CCOCC4)cc3OC)c12 [Example 24, 2-(morpholin-4-yl)ethyl 2-(4-{[2-amino-4-(pentylamino)-5H-pyrrolo[3,2-d]pyrimidin-5-yl]methyl}-3-methoxyphenyl)acetate] — 25-fold lower, 0.008 µM
- CCCCCNc1nc(N)nc2ccn(Cc3ccc(CC(=O)OCCN4CCNCC4)cc3OC)c12 [Example 25, 2-(piperazin-1-yl)ethyl 2-(4-{[2-amino-4-(pentylamino)-5H-pyrrolo[3,2-d]pyrimidin-5-yl]methyl}-3-methoxyphenyl)acetate] — 6.7-fold lower, 0.03 µM
- CCCCCNc1nc(N)nc2ccn(Cc3cc(OCC(=O)OCCN(C)C)ccc3OC)c12 [Example 26, 2-(dimethylamino)ethyl 2-(3-{[2-amino-4-(pentylamino)-5H-pyrrolo[3,2-d]pyrimidin-5-yl]methyl}-4-methoxyphenoxy)acetate] — within 1.5-fold, 0.3 µM
- CCCCCNc1nc(N)nc2ccn(Cc3cc(OCC(=O)OCCN4CCNCC4)ccc3OC)c12 [Example 27, 2-(piperazin-1-yl)ethyl 2-(3-{[2-amino-4-(pentylamino)-5H-pyrrolo[3,2-d]pyrimidin-5-yl]methyl}-4-methoxyphenoxy)acetate] — 2.5-fold higher, 0.5 µM
- CCCCCNc1nc(N)nc2ccn(Cc3cc(OCC(=O)OCCN4CCOCC4)ccc3OC)c12 [Example 28, 2-(morpholin-4-yl)ethyl 2-(3-{[2-amino-4-(pentylamino)-5H-pyrrolo[3,2-d]pyrimidin-5-yl]methyl}-4-methoxyphenoxy)acetate] — 2-fold higher, 0.4 µM
- CCCCCNc1nc(N)nc2ccn(Cc3cc(OCC(=O)OCCN4CCN(C)CC4)ccc3OC)c12 [Example 29, 2-(4-methylpiperazin-1-yl)ethyl 2-(3-{[2-amino-4-(pentylamino)-5H-pyrrolo[3,2-d]pyrimidin-5-yl]methyl}-4-methoxyphenoxy)acetate] — the same, 0.2 µM
- CCCC[C@@H](CO)Nc1nc(N)nc2ccn(Cc3cc(CN4CCNCC4)ccc3OC)c12 [Example 30, (S)-2-((2-amino-5-(2-methoxy-5-(piperazin-1-ylmethyl)benzyl)-5H-pyrrolo[3,2-d]pyrimidin-4-yl)amino)hexan-1-ol] — 2.5-fold lower, 0.08 µM
- CCCCCNc1nc(N)nc2ccn(Cc3cc(CN4CCNCC4)ccc3OC)c12 [Example 31, 5-(2-methoxy-5-(piperazin-1-ylmethyl)benzyl)-N4-pentyl-5H-pyrrolo[3,2-d]pyrimidine-2,4-diamine] — 10-fold lower, 0.02 µM
- CCCCCNc1nc(N)nc2ccn(Cc3ccc(CN4CCNCC4)cc3OC)c12 [Example 32, 5-(2-methoxy-4-(piperazin-1-ylmethyl)benzyl)-N4-pentyl-5H-pyrrolo[3,2-d]pyrimidine-2,4-diamine] — lower, < 0.005 µM
- CCCC[C@@H](CO)Nc1nc(N)nc2ccn(Cc3ccc(CN4CCNCC4)cc3OC)c12 [Example 33, (S)-2-((2-amino-5-(2-methoxy-4-(piperazin-1-ylmethyl)benzyl)-5H-pyrrolo[3,2-d]pyrimidin-4-yl)amino)hexan-1-ol] — 29-fold lower, 0.007 µM
- CCCCCNc1nc(N)nc2ccn(Cc3cc(N)ccc3OC)c12 [Example 34, 5-(5-amino-2-methoxybenzyl)-N4-pentyl-5H-pyrrolo[3,2-d]pyrimidine-2,4-diamine] — 200-fold lower, 0.001 µM
